# Reference: PMC3984044 (ChemMedChem, 2013)
# Structures can show the parent of a compound that is named as a salt. Where two headings read alike, the source gives them in different places.
# Experiments:
# [1] = test system: PrP^Sc levels in ScN2a-cl3 cells; assay: cells; format: cell-based, mouse
# in vitro = conditions: mouse, microsomes
# in vivo = conditions: mouse, po, 10 mg/kg
# [2] = mouse, microsomes
# [3] = mouse, in vivo; cited from earlier work
# [4] = Mus musculus, read-out: EC50 ± SEM(nM)
compound,measurement,setting,value
"Cc1cccc(Nc2nc(-c3ccc(-c4ccnc(N(C)C)c4)cc3)cs2)n1 [Compound 30, 4-(4-(2-(dimethylamino)pyridin-4-yl)phenyl)-N-(6-methylpyridin-2-yl)thiazol-2-amine]",EC50,[1]; [4],123 ± 35 nM
"Cc1cccc(Nc2nc(-c3ccc(-c4ccnn4C)cc3)cs2)n1 [Compound 18, {4-[4-(2-Methyl-2H-pyrazol-3-yl)-phenyl]-thiazol-2-yl}-(6-methyl-pyridin-2-yl)-amine]",EC50,[1]; [4],89 ± 35 nM
"Cc1cccc(Nc2nc(-c3ccc(-c4cc[n+]([O-])cc4)cc3)cs2)n1 [Compound 13, 4-(4-(2-((6-Methylpyridin-2-yl)amino)thiazol-4-yl)phenyl)pyridine 1-oxide]",EC50,[1]; [4],559 ± 120 nM
"Cc1cccc(Nc2nc(-c3ccc(-c4ccc(N(C)C)nc4)cc3)cs2)n1 [Compound 31, 4-(4-(6-(Dimethylamino)pyridin-3-yl)phenyl)-N-(6-methylpyridin-2-yl)thiazol-2-amine]",EC50,[1]; [4],69 ± 21 nM
"COCCOc1cccc(Nc2nc(-c3ccc(-c4ccccc4)cc3)cs2)n1 [Compound 22, 4-([1,1′-Biphenyl]-4-yl)-N-(6-(2-methoxyethoxy)pyridin-2-yl)thiazol-2-amine]",antiprion activity (in words),[1],inactive
same,EC50,[1]; [4],> 10000 nM
"Cc1cccc(Nc2nc(-c3ccc(-c4ccnc(N5CCN(C)CC5)c4)cc3)cs2)n1 [Compound 32, 4-(4-(2-(4-methylpiperazin-1-yl)pyridin-4-yl)phenyl)-N-(6-methylpyridin-2-yl)thiazol-2-amine]",half-life,in vitro,6.8 min
same,Cmax,in vivo,1.17 ± 0.19 µM
same,AUC,in vivo; AUC (μM *h) Brain,5220 ± 100 nM·h
same,AUC,in vivo; AUC (μM *h) Plasma,1570 ± 150 nM·h
same,EC50,[1]; [4],759 ± 374 nM
"CN1CCN(c2cc(-c3ccc(-c4csc(NC(=O)C5CC5)n4)cc3)ccn2)CC1 [Compound 45, N-(4-(4-(2-(4-methylpiperazin-1-yl)pyridin-4-yl)phenyl)thiazol-2-yl)cyclopropanecarboxamide]",half-life,in vitro,4.4 min
same,Cmax,in vivo,0.25 ± 0.11 µM
same,AUC,in vivo; AUC (μM *h) Brain,1290 ± 20 nM·h
same,AUC,in vivo; AUC (μM *h) Plasma,760 ± 10 nM·h
same,EC50,[1]; [4],682 ± 100 nM
"Cc1cccc(Nc2nc(-c3ccc(-c4ccc(N5CCN(C)CC5)nc4)cc3)cs2)n1 [Compound 33, 4-(4-(6-(4-Methylpiperazin-1-yl)pyridin-3-yl)phenyl)-N-(6-methylpyridin-2-yl)thiazol-2-amine]",EC50,[1]; [4],96 ± 31 nM
"CN1CCN(c2cccc(Nc3nc(-c4ccc(-c5ccccc5)cc4)cs3)n2)CC1 [Compound 24, 4-([1,1′-Biphenyl]-4-yl)-N-(6-(4-methylpiperazin-1-yl)pyridin-2-yl)thiazol-2-amine]",EC50,[1]; [4],1180 ± 206 nM
"Cc1ncccc1-c1ccc(-c2csc(NC(=O)C3CC3)n2)cc1 [Compound 40, Cyclopropanecarboxylic acid {4-[4-(2-methyl-pyridin-3-yl)-phenyl]-thiazol-2-yl}-amide]",EC50,[1]; [4],> 10000 nM
"Cc1noc(C)c1-c1ccc(-c2csc(NC(=O)C3CC3)n2)cc1 [Compound 43, Cyclopropanecarboxylic acid {4-[4-(3,5-dimethyl-isoxazol-4-yl)-phenyl]-thiazol-2-yl}-amide]",EC50,[1]; [4],> 10000 nM
"Cc1cccc(Nc2nc(-c3ccc(N4CCN(C)CC4)cc3)cs2)n1 [Compound 20, {4-[4-(4-Methyl-piperazin-1-yl)-phenyl]-thiazol-2-yl}-(6-methyl-pyridin-2-yl)-amine]",EC50,[1]; [4],840 ± 132 nM
"Cc1cccc(Nc2nc(-c3ccc(-c4ccncc4C)cc3)cs2)n1 [Compound 14, (6-Methyl-pyridin-2-yl)-{4-[4-(3-methyl-pyridin-4-yl)-phenyl]-thiazol-2-yl}-amine trifluoro acetic acid salt]",EC50,[1]; [4],400 ± 61 nM
"Cn1nccc1-c1ccc(-c2csc(NC(=O)C3CC3)n2)cc1 [Compound 42, Cyclopropanecarboxylic acid {4-[4-(2-methyl-2H-pyrazol-3-yl)-phenyl]-thiazol-2-yl}-amide]",EC50,[1]; [4],> 10000 nM
"COc1ccc(-c2ccc(-c3csc(Nc4cccc(C)n4)n3)cc2)cn1 [Compound 25, {4-[4-(6-Methoxy-pyridin-3-yl)-phenyl]-thiazol-2-yl}-(6-methyl-pyridin-2-yl)-amine]",EC50,[1]; [4],140 ± 23 nM
"CN1CCN(c2ccc(-c3ccc(-c4csc(NC(=O)C5CC5)n4)cc3)cn2)CC1 [Compound 47, N-(4-(4-(6-(4-methylpiperazin-1-yl)pyridin-3-yl)pheyl)thiazol-2-yl)cyclopropanecarboxamide]",T1/2,[2],2.5 min
same,EC50,[1]; read-out: EC50 ± SEM,70 ± 23 nM
"Cc1cccc(Nc2nc(-c3ccc(-c4ccnc(OC(C)C)c4)cc3)cs2)n1 [Compound 28, 4-(4-(2-isopropoxypyridin-4-yl)phenyl)-N-(6-methylpyridin-2-yl)thiazol-2-amine]",EC50,[1]; [4],2840 ± 22 nM
"O=C(Nc1nc(-c2ccc(-c3ccncc3)cc2)cs1)C1CC1 [Compound 39, Cyclopropanecarboxylic acid [4-(4-pyridin-4-yl-phenyl)-thiazol-2-yl]-amide trifluoroacetic acid salt]",EC50,[1]; [4],173 ± 16 nM
"Cc1cccc(Nc2nc(-c3ccc(N4CCOCC4)cc3)cs2)n1 [Compound 21, (6-Methyl-pyridin-2-yl)-[4-(4-morpholin-4-yl-phenyl)-thiazol-2-yl]-amine]",EC50,[1]; [4],51 ± 7 nM
"COCCOc1ccc(-c2ccc(-c3csc(Nc4cccc(C)n4)n3)cc2)cn1 [Compound 27, 4-(4-(6-(2-methoxyethoxy)pyridin-3-yl)phenyl)-N-(6-methylpyridin-2-yl)thiazol-2-amine]",half-life,in vitro,> 60 min
same,Cmax,in vivo,0.97 ± 0.22 µM
same,AUC,in vivo; AUC (μM *h) Brain,3270 ± 440 nM·h
same,AUC,in vivo; AUC (μM *h) Plasma,6750 ± 450 nM·h
same,EC50,[1]; [4],137 ± 13 nM
"Cc1cccc(Nc2nc(-c3ccc(-c4cccnc4)cc3)cs2)n1 [Compound 15, (6-Methyl-pyridin-2-yl)-[4-(4-pyridin-3-yl-phenyl)-thiazol-2-yl]-amine]",half-life,in vitro,> 60 min
same,fold greater antiprion potency than 1,[1],> 10 fold
same,EC50,[1]; [4],68 ± 13 nM
"Cc1cccc(Nc2nc(-c3ccc(-c4cccnc4C)cc3)cs2)n1 [Compound 17, (6-Methyl-pyridin-2-yl)-{4-[4-(2-methyl-pyridin-3-yl)-phenyl]-thiazol-2-yl}-amine trifluoro acetic acid salt]",EC50,[1]; [4],618 ± 54 nM
"COCCOc1cc(-c2ccc(-c3csc(NC(=O)C4CC4)n3)cc2)ccn1 [Compound 44, N-(4-(4-(2-(2-methoxyethoxy)pyridin-4-yl)phenyl)thiazol-2-yl)cyclopropanecarboxamide]",EC50,[1]; [4],1320 ± 233 nM
"Cc1cccc(Nc2nc(-c3ccc(-c4ccc[n+]([O-])c4)cc3)cs2)n1 [Compound 16, 3-(4-(2-((6-Methylpyridin-2-yl)amino)thiazol-4-yl)phenyl)pyridine 1-oxide]",half-life,in vitro,> 60 min
same,Cmax,in vivo,0.9 ± 0.24 µM
same,AUC,in vivo; AUC (μM *h) Brain,3850 ± 520 nM·h
same,AUC,in vivo; AUC (μM *h) Plasma,11500 ± 710 nM·h
same,EC50,[1]; [4],203 ± 10 nM
"CN(C)c1ccc(-c2ccc(-c3csc(NC(=O)C4CC4)n3)cc2)cn1 [Compound 41, Cyclopropanecarboxylic acid {4-[4-(6-dimethylamino-pyridin-3-yl)-phenyl]-thiazol-2-yl}-amide]",EC50,[1]; [4],109 ± 12 nM
"COCCOc1ccc(-c2ccc(-c3csc(NC(=O)C4CC4)n3)cc2)cn1 [Compound 46, N-(4-(4-(6-(2-methoxyethoxy)pyridin-3-yl)phenyl)thiazol-2-yl)cyclopropanecarboxamide]",half-life,in vitro,55 min
same,Cmax,in vivo,0.15 ± 0.01 µM
same,AUC,in vivo; AUC (μM *h) Brain,320 nM·h
same,AUC,in vivo; AUC (μM *h) Plasma,260 ± 10 nM·h
same,EC50,[1]; [4],118 ± 11 nM
"O=C(Nc1nc(-c2ccc(-c3ccccc3)cc2)cs1)C1CC1 [Compound 34, cyclopropanecarboxylic acid (4-biphenyl-thiazol-2-yl)-amide]",T1/2,[2],>60 min
same,EC50,[1]; read-out: EC50 ± SEM,248 ± 67 nM
"Cc1cccc(Nc2nc(-c3ccc(-c4ccc(OC(C)C)nc4)cc3)cs2)n1 [Compound 29, 4-(4-(6-Isopropoxypyridin-3-yl)phenyl)-N-(6-methylpyridin-2-yl)thiazol-2-amine]",EC50,[1]; [4],5860 ± 327 nM
"Cc1cccc(Nc2nc(-c3ccc(-c4c(C)noc4C)cc3)cs2)n1 [Compound 19, {4-[4-(3,5-Dimethyl-isoxazol-4-yl)-phenyl]-thiazol-2-yl}-(6-methyl-pyridin-2-yl)-amine]",EC50,[1]; [4],2130 ± 226 nM
"Cc1cccc(Nc2nc(-c3ccc(-c4ccccc4)cc3)cs2)n1 [Compound 1, (4-Biphenyl-4-yl-thiazol-2-yl)-(6-methyl-pyridin-2-yl)-amine]",oral bioavailability (%F),[3],~40%
same,half-life,in vitro,> 60 min
same,Cmax,in vivo,2.45 ± 0.74 µM
same,EC50,[1]; [4],1290 ± 122 nM
"Cc1cccc(Nc2nc(-c3ccc(-c4ccncc4)cc3)cs2)n1 [Compound 12, (6-Methyl-pyridin-2-yl)-[4-(4-pyridin-4-yl-phenyl)-thiazol-2-yl]-amine]",half-life,in vitro,> 60 min
same,fold greater antiprion potency than 1,[1],> 10 fold
same,EC50,[1]; [4],87 ± 43 nM
"CN(C)c1cccc(Nc2nc(-c3ccc(-c4ccccc4)cc3)cs2)n1 [Compound 23, N2-(4-([1,1′-biphenyl]-4-yl)thiazol-2-yl)-N6,N6-dimethylpyridine-2,6-diamine]",EC50,[1]; [4],699 ± 87 nM
"COCCOc1cc(-c2ccc(-c3csc(Nc4cccc(C)n4)n3)cc2)ccn1 [Compound 26, 4-(4-(2-(2-methoxyethoxy)pyridin-4-yl)phenyl)-N-(6-methylpyridin-2-yl)thiazol-2-amine]",Cmax,in vivo,0.33 ± 0.16 µM
same,AUC,in vivo; AUC (μM *h) Brain,1040 ± 130 nM·h
same,EC50,[1]; [4],153 ± 36 nM
